pIC50: −log10 of the molar value.
Legend:
PRMT1 [1] = target: T1, PRMT1 (Homo sapiens, UniProt Q99873); assay: PRMT1 Enzymatic Assay (LANCE TR-FRET, methylation of histone H4 at Arg3); format: biochemical; parameters: purchased SignalChem P365-380G; conditions: PRMT1 1.5 nM, SAM 1 μM, biotinylated histone H4 (1-21) 25 nM; read-out: PRMT-1 IC50
Method: In order to measure PRMT1 enzymatic activity the LANCE TR-FRET assay from PerkinElmer was used to follow the methylation of histone H4 at Arg3 using S-adenosyl-L-methionine (SAM) as the methyl group donor.
This enzymatic assay was performed in a 384 well, white, low volume plate (PerkinElmer, Catalog 6008289) with assay buffer consisting of 50 mM Hepes (pH 8) (Teknova, Catalog #H1090), 1 mM TCEP (Sigma, Catalog #C4706), and 0.003% Tween-20 (Thermo, Catalog #85114). Stock solutions of the test compounds were prepared in 100% DMSO (Sigma, Catalog #D2650) and serially diluted 1:3 using 100% DMSO. Compounds were additionally diluted 1:40 in assay buffer, and 2 uL/well were transferred to the assay plate. 4 uL/well (final concentration 1.5 nM) of PRMT1 protein (SignalChem, Catalog #P365-380G) diluted in assay buffer was added to the assay plate followed by a 15 min preincubation at room temperature. 4 uL/well of SAM (Sigma, Catalog #A7007) and biotinylated histone H4 (1-21) (AnaSpec, Catalog #62555) (final concentrations 1 μM and 25 nM, respectively) diluted in assay buffer were then added to the assay plate followed by a 1 hour reaction time. Final concentrations of PRMT1, SAM, and histone H4 (1-21) refer to a […].
Detection of methylated histone H4 (H4R^3me) was achieved by combining LANCE Ultra Europium-anti-H4R^3me antibody (PerkinElmer, Catalog #TRF04-14), LANCE Ultra ULight-anti-streptavidin antibody (PerkinElmer, Catalog #TRF0102), and sinefungin (Sigma, Catalog #S8559) (final concentrations 2 nM, 50 nM, and 100 μM respectively) in 1× LANCE detection buffer (PerkinElmer, Catalog #CR97-100) and adding L/well of the detection solution to the assay plate. Detection reagents were allowed to react for 1 hour at room temperature. Final concentrations in the detection solution refer to a L volume. The europium fluorescence signal and the ULight TR-FRET signal were measured using a BioTek Synergy Neo plate reader: excitation at 330 nm, emission at 620 nm and 665 nm respectively, and the ratio of the two signals (665 nm/620 nm) was used for curve fitting. IC50 values were calculated using a four-parameter logistic curve fit using Genedata Screener software.

PATC53 cells = assay: PATC53 Long Term Phenotypic Assay (14 days, crystal violet viability); format: cell-based; conditions: 336 h
Method: PATC53 cells were derived from the PATC53 PDX model and kindly provided by Jason Fleming (MDACC). The cells were routinely maintained in DMEM/F12 Medium (Corning, Catalog #10-090-CV) supplemented with 10% fetal bovine serum (Sigma, Catalog #F2442), 100 units/mL penicillin and 100 μg/mL streptomycin (Gibco, Catalog #15140-122) in a humidified incubator (37° C., 5% CO2). Prior to the assay, cells were seeded onto a 12-well, TC treated plate (Corning, catalog #353043) at a density of 250 cells per well in a volume of 1 mL. The plate was incubated for 24 hours at 37° C. and 5% CO2. Stock solutions of the test compounds were prepared in 100% DMSO (Sigma, Catalog #D2650) and serially diluted 1:3 using 100% DMSO. Compounds were additionally diluted 1:100 in culture medium, and 110 μL/well was transferred to the tissue culture plate. Following the compound addition, the plate was incubated at 37° C. and 5% CO2 for 14 days. Viability was then assessed by crystal violet staining (Fisher Scientific, Catalog #C58125) as follows: 450 μL of crystal violet (1 mg/mL) was added to the plate for a 10 minute incubation at room temperature. After incubation, the plate was washed 3× with distilled water to remove excess dye and allowed to dry overnight. The crystal violet was solubilized using 10% HOAc (500 μL) for 10 minutes at room temperature, while shaking. A volume of 100 μL was then transferred to a 96-well SpectraPlate (Perkin Elmer, Catalog #6005649). Absorbance at 590 nm was measured with a BioTek Synergy Neo. IC50 values were calculated using a four-parameter logistic curve fit using Genedata Screener software.

PRMT1 [2] = target: T1, PRMT1; assay: PRMT1 RKO Cellular Target Engagement Assay (In-Cell Western, asymmetric di-methyl arginine); format: cell-based; conditions: RKO cells, 48 hr compound incubation; read-out: RKO IC50 (PRMT-1 Target Engagement)
Method: RKO cells were routinely maintained in EMEM media (ATCC, Catalog #30-2003) supplemented with 10% fetal bovine serum (Sigma, Catalog #F2442) using a humidified incubator (37° C., 5% CO2, and ambient O2).
In preparation for the In-Cell Western assay, cells were harvested and resuspended in EMEM media supplemented with 10% fetal bovine serum. Cells were seeded onto a 384 well, black, clear bottom, Poly-D-Lysine coated tissue culture plate (Greiner, Catalog #781946) at a density of 1,000 cells/well in a volume of 40 μL. The culture plate was incubated for 24 hr at 37° C. with 5% CO2 and ambient O2. Stock solutions of the test compounds were prepared in 100% DMSO (Sigma, Catalog #D2650) and serially diluted 1:3 using 100% DMSO. Compounds were additionally diluted 1:40 in culture medium, and 10 μL/well was transferred to the tissue culture plate. Following the compound addition the microplate was incubated at 37° C. for 48 hr.
The media was removed, the plate was washed with 1× PBS (Fisher Bioreagents, Catalog #BP399-20), and cells were fixed for 10 min using 30 μL/well of 4% paraformaldehyde (Electron Microscopy Sciences, Catalog #15710). The paraformaldehyde was removed, the plate was again washed with 1× PBS, and cells were permeabilized for 15 min using 30 μL/well of 1× PBS containing 0.5% Triton-X 100 (Sigma, Catalog #1001748095). The permeabilization buffer was removed, the plate was washed with 1× PBST (Boston BioProducts, Catalog #IBB-171X), and 50 μL/well of blocking buffer (LI-COR, Catalog #927-40000) was added followed by a 1 hour incubation at room temperature. The blocking buffer was removed, and 20 μL/well of anti-asymmetric di-methyl arginine antibody (Cell Signaling, Catalog #13522S) diluted 1:1000 in LI-COR blocking buffer was added to the plate and incubated overnight, in the dark at 4° C.
The primary antibody was then removed, and the plate was washed three times with 1× PBST. 20 μL/well of CellTag (LI-COR, Catalog #926-41090) and IRDye 800CW goat anti-rabbit IgG antibody (LI-COR, Catalog #926-32211), each diluted 1:500 in LI-COR blocking buffer supplemented with 0.1% Tween-20 (Thermo Scientific, Catalog #85114), were added to the plate. The plate was then incubated in the dark, at room temperature for 1 hour followed by three washes with 1× PBST and one wash with H2O. The IRDye secondary antibody signal (800 channel) and the CellTag signal (700 channel) were measured using a Licor Odyssey Imager, and the 800 channel signal was then normalized to the 700 channel signal. IC50 values were calculated using a four-parameter logistic curve fit using Genedata Screener software.

DOHH2 cells = assay: DOHH2 Long Term Phenotypic Assay (7 days, Cell Titer-Glo viability); format: cell-based; conditions: Homo sapiens, DOHH-2, 168 h, Cell Titer-Glo 2.0
Method: DOHH2 cells were kindly provided by Michael Green (MDACC). The cells were routinely maintained in RPMI-1640 Medium (ATCC, Catalog #30-2001) supplemented with 10% fetal bovine serum (Sigma, Catalog #F2442), 100 units/mL penicillin and 100 μg/mL streptomycin (Gibco, Catalog #15140-122) in a humidified incubator (37° C., 5% CO2). Cells were seeded onto a white, CulturPlate-384 (Perkin Elmer, catalog #6007680) at a density of 250 cells per well in a volume of 50 μL. Stock solutions of the test compounds were prepared in 100% DMSO (Sigma, Catalog #D2650) and serially diluted 1:3 using 100% DMSO. Compounds were additionally diluted 1:33 in culture medium, and 10 μL/well was transferred to the tissue culture plate. Following the compound addition, the plate was incubated at 37° C. and 5% CO2 for 7 days. Cells were then mixed and a 30 μL volume was removed. Viability was assessed by a 30 μL addition of Cell Titer-Glo 2.0 (Promega, catalog #G9243). The plate was then shaken on an orbital shaker at 300 RPM for 10 minutes at room temperature, in the dark. Luminescence was measured using a PerkinElmer Envision™ plate reader. IC50 values were calculated using a four-parameter logistic curve fit using Genedata Screener software.

T1 sequence (Q99873 whole entry): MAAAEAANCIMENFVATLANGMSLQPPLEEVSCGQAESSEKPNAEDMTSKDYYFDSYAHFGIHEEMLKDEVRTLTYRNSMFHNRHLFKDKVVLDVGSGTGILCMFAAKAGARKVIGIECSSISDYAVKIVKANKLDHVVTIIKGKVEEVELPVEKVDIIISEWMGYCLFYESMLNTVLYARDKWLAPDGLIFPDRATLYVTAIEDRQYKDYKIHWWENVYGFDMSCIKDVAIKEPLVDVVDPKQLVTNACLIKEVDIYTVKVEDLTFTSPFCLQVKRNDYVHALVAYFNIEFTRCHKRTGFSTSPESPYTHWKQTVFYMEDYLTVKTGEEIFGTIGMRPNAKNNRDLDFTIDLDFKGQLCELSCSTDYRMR

pIC50 (PRMT1 [1]) | pIC50 (PRMT1 [2]) | SMILES | pIC50 (PATC53 cells) | pIC50 (DOHH2 cells)
6.81 | 5.85 | CNCCN(C)Cc1nn2c(c1C1CCC(COC)(COC)CC1)CN(C(=O)C1CCC(OC)CC1)CC2 (stereo not drawn) [Example 48, (3-(4,4-bis(methoxymethyl)-cyclohexyl)-2-((methyl(2-(methylamino)ethyl)amino)-methyl)-6,7-dihydropyrazolo-[1,5-a]pyrazin-5(4H)-yl)(4-methoxycyclohexyl)-methanone] | 6.61 | 6.55
7.24 | 6.82 | CCOCC1(COCC)CCC(c2c(CN(C)CCNC)nn3c2CN(C(=O)CC(F)(F)F)CC3)CC1 [Example 3, 1-(3-(4,4-bis(ethoxymethyl)-cyclohexyl)-2-((methyl(2-(methylamino)ethyl)amino)-methyl)-6,7-dihydropyrazolo-[1,5-a]pyrazin-5(4H)-yl)-3,3,3-trifluoropropan-1-one] | 6.37 | 
7.14 | 5.85 | CNCCN(C)Cc1nn2c(c1C1CCC(COC)(COC)CC1)CN(C(=O)C13CC(C#N)(C1)C3)CC2 [Example 22, 3-(3-(4,4-bis(methoxy-methyl)cyclohexyl)-2-((methyl(2-(methylamino)-ethyl)amino)methyl)-4,5,6,7-tetrahydropyrazolo[1,5-a]-pyrazine-5-carbonyl)bicyclo[1.1.1] pentane-1-carbonitrile] | 6.35 | 
7.49 | 5.79 | CNCCN(C)Cc1nn2c(c1C1CCC(COC)(COC)CC1)CN(C(=O)CC(F)(F)F)CC2 [Example 7, 1-(3-(4,4-bis(methoxy-methyl)cyclohexyl)-2-((methyl(2-(methylamino)-ethyl)amino)methyl)-6,7-dihydropyrazolo[1,5-a]-pyrazin-5(4H)-yl)-3,3,3-trifluoropropan-1-one] | 6.68 | 
6.97 |  | CNCCN(C)Cc1nn2c(c1C1CCC(COC)(COC)CC1)CN(C(=O)C1CCOCC1)CC2 [Example 31, (3-(4,4-bis(methoxymethyl)-cyclohexyl)-2-((methyl(2-(methylamino)ethyl)amino)-methyl)-6,7-dihydropyrazolo-[1,5-a]pyrazin-5(4H)-yl)-(tetrahydro-2H-pyran-4-yl)-methanone] | 6.23 | 6.69
7.25 | 6.43 | CNCCN(C)Cc1nn2c(c1C1CCC(COC)(COC)CC1)CN(C(=O)C1(C)CC1)CC2 [Example 17, (3-(4,4-bis(methoxymethyl)-cyclohexyl)-2-((methyl(2-(methylamino)ethyl)amino)-methyl)-6,7-dihydropyrazolo-[1,5-a]pyrazin-5(4H)-yl)(1-methylcyclopropyl)-methanone] | 6.88 | 
7.64 |  | COCC1(COC)CCC(c2c(CN(C)CCN)nn3c2CN(C(=O)C2COC2)CC3)CC1 [Example 12, (2-(((2-aminoethyl)(methyl)-amino)methyl)-3-(4,4-bis-(methoxymethyl)cyclohexyl)-6,7-dihydropyrazolo[1,5-a]-pyrazin-5(4H)-yl)(oxetan-3-yl)methanone] | 5.41 | 
7.70 | 6.16 | COCC1(COC)CCC(c2c(CN(C)CCN)nn3c2CN(C(=O)CC(F)(F)F)CC3)CC1 [Example 10, 1-(2-(((2-aminoethyl)-(methyl)amino)methyl)-3-(4,4-bis(methoxymethyl)-cyclohexyl)-6,7-dihydro-pyrazolo[1,5-a]pyrazin-5(4H)-yl)-3,3,3-trifluoropropan-1-one] | 6.19 | 
6.91 |  | CNCCN(C)Cc1nn2c(c1C1CCC(COC)(COC)CC1)CN(C(=O)CC1CCOCC1)CC2 [Example 34, 1-(3-(4,4-bis(methoxy-methyl)cyclohexyl)-2-((methyl(2-(methylamino)-ethyl)amino)methyl)-6,7-dihydropyrazolo[1,5-a]-pyrazin-5(4H)-yl)-2-(tetrahydro-2H-pyran-4-yl)ethan-1-one] | 6.19 | 6.70
7.19 | 5.95 | CNCCN(C)Cc1nn2c(c1C1CCC(COC)(COC)CC1)CN(C(=O)C1COC1)CC2 [Example 9, (3-(4,4-bis(methoxymethyl)-cyclohexyl)-2-((methyl(2-(methylamino)ethyl)amino)-methyl)-6,7-dihydropyrazolo-[1,5-a]pyrazin-5(4H)-yl)-(oxetan-3-yl)methanone] | 5.88 | 

— US20230416261A1, “ETHANEDIAMINE-HETEROCYCLE DERIVATIVES AS INHIBITORS OF PROTEIN ARGININE METHYLTRANSFERASES” (Board of Regents, The University of Texas System, priority 2021, published 2023)
